Solubility data for 13 molecules are collected here from patent publication US20210221832A1, “SUBSTITUTED PYRIDOINDOLES FOR THE TREATMENT AND PROPHYLAXIS OF BACTERIAL INFECTION” (Hoffmann-La Roche Inc., priority 2018, published 2021).

≈ marks a conversion by molar mass, not a printed value.

The series can be described thus: Lyophilisation Solubility Assay (LYSA). As to conditions: aqueous buffer, thermodynamic from solid; 0.05 M phosphate buffer, pH 6.5. In kind it is physicochemical. The procedure: The solubility of compounds of present invention was assessed by LYSA assay. Samples were prepared in duplicate from 10 mM DMSO stock solutions (20 μL) diluted in 30 μL pure DMSO. After evaporation of DMSO with a centrifugal vacuum evaporator, the residue was dissolved in 0.05 M phosphate buffer (150 μL, pH 6.5), which was stirred for one hour and shook for two hours. After one night, the solution was filtered using a microtiter filter plate. Then the filtrate and its 1/10 dilution were analyzed by HPLC-UV. In addition, a four-point calibration curve was prepared from the 10 mM stock solutions and used for the solubility determination of the compounds.
In the case of `CN1C[C@@H]2CCN(c3c(-c4cnc5c(c4)c(=O)c(C(=O)O)cn5C)cnc4[nH]c5c(N(C)C(=O)OCOP(=O)(O)O)cc(F)c(C#N)c5c34)[C@@H]2C1` [Example 1.01, 6-[5-Cyano-6-fluoro-8-[methyl(phosphonooxymethoxycarbonyl)amino]-4-[(3aS,6aS)-5-methyl-2,3,3a,4,6,6a-hexahydropyrrolo[2,3-c]pyrrol-1-yl]-9H-pyrido[2,3-b]indol-3-yl]-1-methyl-4-oxo-1,8-naphthyridine-3-carboxylic acid], the solubility is above 595 µg/mL.

In the case of `CN1C[C@@H]2CCN(c3c(-c4cnc5c(c4)c(=O)c(C(=O)O)cn5C)cnc4[nH]c5c(N(C)C=O)cc(F)c(C#N)c5c34)[C@@H]2C1` [Example 1.03, 6-[5-Cyano-6-fluoro-8-[formyl(methyl)amino]-4-[(3aS,6aS)-5-methyl-2,3,3a,4,6,6a-hexahydropyrrolo[2,3-c]pyrrol-1-yl]-9H-pyrido[2,3-b]indol-3-yl]-1-methyl-4-oxo-1,8-naphthyridine-3-carboxylic acid], the solubility was above 730 µg/mL.

Regarding `CNc1cc(F)c(C#N)c2c1[nH]c1ncc(-c3cnc4c(c3)c(=O)c(C(=O)O)cn4C)c(N3CC[C@H]4C[N+](C)(COP(=O)(O)O)C[C@H]43)c12` (stereo partly drawn) [Example 1.07, 6-[5-Cyano-6-fluoro-8-(methylamino)-4-[(3aS,6aS)-5-methyl-5-(phosphonooxymethyl)-2,3,3a,4,6,6a-hexahydropyrrolo[2,3-c]pyrrol-5-ium-1-yl]-9H-pyrido[2,3-b]indol-3-yl]-1-methyl-4-oxo-1,8-naphthyridine-3-carboxylic acid], the solubility was above 1060 µg/mL.

In turn, `CN1C[C@@H]2CCN(c3c(-c4cnc5c(c4)c(=O)c(C(=O)O)cn5C)cnc4[nH]c5c(N(C)C=O)cc(F)c(F)c5c34)[C@@H]2C1` [Example 1.26, 6-[5,6-Difluoro-8-[formyl(methyl)amino]-4-[(3aS,6aS)-5-methyl-2,3,3a,4,6,6a-hexahydropyrrolo[2,3-c]pyrrol-1-yl]-9H-pyrido[2,3-b]indol-3-yl]-1-methyl-4-oxo-1,8-naphthyridine-3-carboxylic acid] had a solubility above 783 µg/mL.

For the molecule `CN1C[C@@H]2CCN(c3c(-c4cnc5c(c4)c(=O)c(C(=O)O)cn5C)cnc4[nH]c5c(N(C)S(=O)(=O)O)cc(F)c(F)c5c34)[C@@H]2C1` [Example 1.27, 6-[5,6-Difluoro-8-[methyl(sulfo)amino]-4-[(3aS,6aS)-5-methyl-2,3,3a,4,6,6a-hexahydropyrrolo[2,3-c]pyrrol-1-yl]-9H-pyrido[2,3-b]indol-3-yl]-1-methyl-4-oxo-1,8-naphthyridine-3-carboxylic acid], the solubility is above 685 µg/mL.

The molecule `CN1C[C@@H]2CCN(c3c(-c4cnc5c(c4)c(=O)c(C(=O)O)cn5C)cnc4[nH]c5c(N(C)C(=O)OCOC(=O)/C=C/C(=O)O)cc(F)c(F)c5c34)[C@@H]2C1` [Example 1.28, 6-[5,6-Difluoro-8-[methyl-[[(E)-3-carboxyprop-2-enoyl]oxymethoxycarbonyl]amino]-4-[(3aS,6aS)-5-methyl-2,3,3a,4,6,6a-hexahydropyrrolo[2,3-c]pyrrol-1-yl]-9H-pyrido[2,3-b]indol-3-yl]-1-methyl-4-oxo-1,8-naphthyridine-3-carboxylic acid] came in with a solubility above 945 µg/mL.

In turn, `CN1C[C@@H]2CCN(c3c(-c4ccc5ccc(C(=O)O)c(=O)n5c4)cnc4[nH]c5c(N(C)C(=O)OCOP(=O)(O)O)cc(F)c(F)c5c34)[C@@H]2C1` [Example 1.32, 7-[5,6-Difluoro-8-[methyl(phosphonooxymethoxycarbonyl)amino]-4-[(3aS,6aS)-5-methyl-2,3,3a,4,6,6a-hexahydropyrrolo[2,3-c]pyrrol-1-yl]-9H-pyrido[2,3-b]indol-3-yl]-4-oxo-quinolizine-3-carboxylic acid] yielded a solubility above 875 µg/mL.

As for `CN1C[C@@H]2CCN(c3c(-c4ccc5ccc(C(=O)O)c(=O)n5c4)cnc4[nH]c5c(N(C)C(=O)OCOC(=O)/C=C/C(=O)O)cc(F)c(F)c5c34)[C@@H]2C1` [Example 1.33, 7-[5,6-Difluoro-8-[methyl-[[(E)-3-carboxyprop-2-enoyl]oxymethoxycarbonyl]amino]-4-[(3aS,6aS)-5-methyl-2,3,3a,4,6,6a-hexahydropyrrolo[2,3-c]pyrrol-1-yl]-9H-pyrido[2,3-b]indol-3-yl]-4-oxo-quinolizine-3-carboxylic acid], the solubility amounted to 680 µg/mL (≈ 949 µM).

Take `CN1C[C@@H]2CCN(c3c(-c4ccc5ccc(C(=O)O)c(=O)n5c4)cnc4[nH]c5c(N(C)C(=O)CNC(=O)CNC(=O)CN)cc(F)c(F)c5c34)[C@@H]2C1` [Example 1.34, 7-[8-[[2-[[2-[(2-Aminoacetyl)amino]acetyl]amino]acetyl]-methyl-amino]-5,6-difluoro-4-[(3aS,6aS)-5-methyl-2,3,3a,4,6,6a-hexahydropyrrolo[2,3-c]pyrrol-1-yl]-9H-pyrido[2,3-b]indol-3-yl]-4-oxo-quinolizine-3-carboxylic acid]: the solubility is above 930 µg/mL.

Take `CN1C[C@@H]2CCN(c3c(-c4ccc5ccc(C(=O)O)c(=O)n5c4)cnc4[nH]c5c(N(C)C(=O)CNC(=O)CN)cc(F)c(F)c5c34)[C@@H]2C1` [Example 1.35, 7-[8-[[2-[(2-Aminoacetyl)amino]acetyl]-methyl-amino]-5,6-difluoro-4-[(3aS,6aS)-5-methyl-2,3,3a,4,6,6a-hexahydropyrrolo[2,3-c]pyrrol-1-yl]-9H-pyrido[2,3-b]indol-3-yl]-4-oxo-quinolizine-3-carboxylic acid]: the solubility was above 915 µg/mL.

The molecule `CNc1cc(F)c(F)c2c3c(N4CC[C@H]5CN(C)C[C@H]54)c(-c4ccc5ccc(C(=O)O)c(=O)n5c4)cn(COP(=O)(O)O)c-3nc12` [Example 1.36, 7-[5,6-Difluoro-8-(methylamino)-1-(phosphonooxymethyl)-4-[(3aS,6aS)-5-methyl-2,3,3a,4,6,6a-hexahydropyrrolo[2,3-c]pyrrol-1-yl]pyrido[2,3-b]indol-3-yl]-4-oxo-quinolizine-3-carboxylic acid] showed a solubility above 1000 µg/mL.

`CNc1cc(F)c(F)c2c1[nH]c1ncc(-c3ccc4ccc(C(=O)OCCOC(=O)[C@@H](N)C(C)C)c(=O)n4c3)c(N3CC[C@H]4CN(C)C[C@H]43)c12` [Example 1.37, 2-[(2S)-2-Amino-3-methyl-butanoyl]oxyethyl 7-[5,6-difluoro-8-(methylamino)-4-[(3aS,6aS)-5-methyl-2,3,3a,4,6,6a-hexahydropyrrolo[2,3-c]pyrrol-1-yl]-9H-pyrido[2,3-b]indol-3-yl]-4-oxo-quinolizine-3-carboxylate] showed a solubility of 315 µg/mL (≈ 458 µM).

`CN1C[C@@H]2CCN(c3c(-c4cnc5c(c4)c(=O)c(C(=O)O)cn5C)cnc4[nH]c5c(N(C)C(=O)OCOP(=O)(O)O)cc(F)c(F)c5c34)[C@@H]2C1` [Example 1.43, 6-[5,6-Difluoro-8-[methyl(phosphonooxymethoxycarbonyl)amino]-4-[(3aS,6aS)-5-methyl-2,3,3a,4,6,6a-hexahydropyrrolo[2,3-c]pyrrol-1-yl]-9H-pyrido[2,3-b]indol-3-yl]-1-methyl-4-oxo-1,8-naphthyridine-3-carboxylic acid] showed a solubility of 595 µg/mL (≈ 834 µM).
